Blank lines part the entries; values can stand above or below the compound they belong to. Numbered stars: 1 amine (or outer) side, 2 acyl side, 3 side chain; on linkers, the order of the positions; unused ones are H or OH. Square brackets hold non-standard residues; d marks the D form. Peptide text beside a SMILES is read from it. * marks the point of attachment. Hexanoyl(5S-NH,4S-OH,6-Ph) = O=C(CC[C@H](O)[C@H](Cc1ccccc1)N[*:1])[*:2]; X2 = Nc1ccc2c(c1)Oc1ccccc1C21OC(=O)c2cc(C(=O)*)ccc21; X1 = CC(C)C[C@H](N[*:1])[C@@H](O)CCC(=O)[*:2]
Columns and labels:
Asp1 [1] = target: T1, Asp1 (Homo sapiens, UniProt Q9Y5Z0); assay: Fluorescence Resonance Energy Transfer (FRET) cleavage assay for Asp1; assay type: biochemical
T1 construct: A cDNA fragment encoding Asp1(EP0848062), amino acids 1 to 473; made in house; host or cells: CHO E1A (Chinese hamster ovary)
Excerpt: Fluorescence Resonsance Energy Transfer (FRET) Cleavage Assay for Asp1
A peptide (X) based on the sequence of the Swedish variant APP beta-site sequence has been doubly labelled for use in a FRET assay. [drawing 2] [drawing 3] This peptide includes the 11 residues spanning the Swedish variant beta-cleavage site (Ile-Ser-Glu-Val-Asn-Leu-Asp-Ala-Glu-Phe-Arg SEQ ID NO:2) with an N-terminal rhodamine green group and C-terminal tetramethylrhodamine group. This would allow cleavage of the intervening peptide sequence by Asp1 to be monitored by energy transfer between the two fluorescent groups.
In practice assays were conducted as follows:
The fluorescent peptide substrate (0.5 uM) was incubated with Asp1-Fc enzyme prepared as described above in a buffer containing 50 mM sodium acetate, 20 mM sodium chloride, 5% glycerol, 0.1% CHAPS (3-[(3-Cholamidopropyl)dimethylammonio]-1-propane-sulphonate), pH 3.8). The assays were started by addition of enzyme (50 nM final concentration) and cleavage monitored on a fluorescent platereader with 485 nm excitation, 538 nm emission. The C-terminal TAMRA group of the peptide acted as effective quencher, thus an increase in rhodamine green intensity was observed upon cleavage.
This assay was used to determine IC50 and Ki values for compounds of interest. […] Asp1 Fluorescence Polarisation Assay.

Asp1 [2] = target: T1, Asp1; assay: Asp1 fluorescence polarisation (competition) binding assay
Experimental: A competition assay has also been designed to identify compounds acting at the Asp1 active site. The hydroxyethylene inhibitor (I) has been modified by addition of 5-, 6-rhodamine green to the free N-terminal amine of the compound to create labelled ligand (II). [drawing 5]
The resulting compound was tested experimentally as follows to determine the Kd with Asp1-Fc enzyme, prepared as above.
A three dimensional analysis varying enzyme and ligand (II) was performed. Ligand concentration range was 1, 3, 10, 30 and 100 nM. Enzyme concentration range was from 100 nM down in serial twofold dilutions (11 dilutions+no enzyme control).
Ligand of appropriate concentration was prepared in 5% DMSO. The enzyme solutions were prepared in 2 times (×2) assay buffer (where ×1=50 mM sodium acetate, 20 mM sodium chloride, 5% glycerol, 0.1% CHAPS, pH 3.8). 5 ul of the enzyme solution (of varying concentration) was mixed with 5 ul of the ligand (of varying concentration) in a low volume 384 microtitre plate. The samples were allowed to equilibrate for 15 min before the fluorescence polarisation was read on an LJL ACQUEST platereader.
The Anisotropy values were plotted and the Kd for the tight binding interaction obtained.
Enzyme (at a fixed concentration of 50 nM), ligand (II) (at a fixed concentration of 5.0 nM) and test compound (5 uM down in twofold serial dilutions) were mixed in ×1 assay buffer in a final assay volume of 10 ul and allowed to equilibrate for 3 hrs. The fluorescence polarisation was then read. The experiment was performed in duplicate.

T1 sequence (Q9Y5Z0 with tags, fused parts or gaps limits assumed): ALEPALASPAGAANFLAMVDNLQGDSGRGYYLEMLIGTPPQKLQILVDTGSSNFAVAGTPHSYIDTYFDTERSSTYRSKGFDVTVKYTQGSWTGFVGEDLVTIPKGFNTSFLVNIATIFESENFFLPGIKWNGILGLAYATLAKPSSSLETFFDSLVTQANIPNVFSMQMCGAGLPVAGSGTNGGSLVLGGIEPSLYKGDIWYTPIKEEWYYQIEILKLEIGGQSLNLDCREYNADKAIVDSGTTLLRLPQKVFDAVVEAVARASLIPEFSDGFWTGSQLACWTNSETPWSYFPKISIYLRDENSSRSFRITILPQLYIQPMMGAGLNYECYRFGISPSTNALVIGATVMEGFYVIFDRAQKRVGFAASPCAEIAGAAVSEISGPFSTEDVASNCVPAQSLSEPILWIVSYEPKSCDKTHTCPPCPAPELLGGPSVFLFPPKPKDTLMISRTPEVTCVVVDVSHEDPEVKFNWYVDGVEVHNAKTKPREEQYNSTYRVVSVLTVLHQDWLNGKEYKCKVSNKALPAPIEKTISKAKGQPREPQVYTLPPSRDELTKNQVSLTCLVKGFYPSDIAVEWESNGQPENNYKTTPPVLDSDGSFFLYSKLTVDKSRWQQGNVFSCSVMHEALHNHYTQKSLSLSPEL

- Ki (Asp1 [1]; Asp1-Fc enzyme 50 nM, fluorescent peptide substrate 0.5 uM, pH 3.8): 2.5 nM
SMILES: CC(C)[C@H](NC(=O)[C@@H](N)CCC(=O)O)C(=O)N[C@@H](CC(N)=O)C(=O)N[C@@H](Cc1ccccc1)[C@@H](O)CCC(=O)N[C@@H](C)C(=O)N[C@@H](CCC(=O)O)C(=O)N[C@@H](Cc1ccccc1)C(=O)O [compound (I)] (H-EVN[Hexanoyl(5S-NH,4S-OH,6-Ph)]AEF-OH)

- IC50 (Asp1 [1]; FRET cleavage assay, Asp1-Fc enzyme): 60 nM
- displacement of the fluorescent ligand (II) (Asp1 [2]; at the highest concentrations of test compound (5 uM down in twofold serial dilutions)): Complete displacement
- Ki (Asp1 [2]; competition against ligand (II) 5.0 nM, enzyme 50 nM, equilibrated 3 hrs, duplicate): 50 nM
SMILES: CC(C)C[C@H](NC(=O)[C@H](C)NC(=O)[C@@H](NC(=O)[C@@H](N)CCC(=O)O)C(C)C)[C@@H](O)CCC(=O)N[C@@H](C)C(=O)N[C@@H](CCC(=O)O)C(=O)N[C@@H](Cc1ccccc1)C(=O)O [Compound (III)] (H-EVA[X1]AEF-OH)

- Kd (Asp1 [2]; tight binding interaction of labelled ligand with Asp1-Fc enzyme, from anisotropy values, pH 3.8): 0.075 nM
SMILES: CC(C)[C@H](NC(=O)[C@H](CCC(=O)O)NC(=O)c1ccc2c(c1)C(=O)OC21c2ccccc2Oc2cc(N)ccc21)C(=O)N[C@@H](CC(N)=O)C(=O)N[C@@H](Cc1ccccc1)[C@@H](O)CCC(=O)N[C@@H](C)C(=O)N[C@@H](CCC(=O)O)C(=O)N[C@@H](Cc1ccccc1)C(=O)O (stereo partly drawn) [ligand (II)] (X2-EVN[Hexanoyl(5S-NH,4S-OH,6-Ph)]AEF-OH)

— patent US20070072807A1, “Method of screening compounds” (SmithKline Beecham Corporation & SmithKline Beecham p.l.c., priority 1999, published 2007)
